SMILES strings stand for the structures.

For one test, the system named is RPMI 7951. Put plainly: Emory Laboratory Cell Screen, Neutral Red, RPMI 7951. Type of test: cell-based, human. Particulars: Homo sapiens, RPMI 7951, Melanoma, 72 hours, read-out: Median Growth Inhibitory Concentration (GI50). The method, then: (§1) Human tumor and endothelial cell lines were treated for 72 hours with compounds at a minimum of four concentrations between 0.1 μM-40 μM. Neutral Red assay was used to calculate cell viability.

For test [1], the system named is Human tumor and endothelial cell lines. Put plainly: Emory Laboratory Cell Screen, mean over cell lines. As to conditions: Homo sapiens, Endothelial cell; Mean over the Emory cell lines; 72 hours; read-out: Median Growth Inhibitory Concentration (GI50), Mean. Format: cell-based. The method, then: as §1
For test [2], the system named is Tissue Factor (TF) production by human melanoma cell line RPMI-7951. Put plainly: TF ELISA, RPMI-7951. Format: cell-based. The method, then:
(§2) IMUBIND Tissue Factor ELISA Kit (American Diagnostica Inc, Greenwich, Conn.) was used to determine TF concentration in each sample. The ELISA was carried out according to manufacturer's procedure.
On the technique in general: An ELISA detects its analyte on a solid surface through an enzyme-linked reagent.

Test [3] deals with Tissue Factor (TF) production by human prostate cancer cell line DU-145. Put plainly: TF ELISA, DU-145. Type of test: cell-based. As to conditions: 20 μM; for TF (% of DMSO): DMSO = 100%; for TF: mean of triplicate and S.D., DMSO 7699 ± 406. As for the experimental part: (§3) Cells were treated with 1% Triton X-100 in PBS and left overnight at 4° C. overnight to solubilize TF. […] IMUBIND Tissue Factor ELISA Kit (American Diagnostica Inc, Greenwich, Conn.) was used to determine TF concentration in each sample. The ELISA was carried out according to manufacturer's procedure.

Test [4] has as its system Tissue Factor (TF) production by human breast cancer cell line MDA-MB-231. Put plainly: TF ELISA, MDA-MB-231. Type of test: cell-based. The method, then: as §2
In test [5] the test system is Tissue Factor (TF) production by human prostate cancer cell line PC-3. The test can be described thus: TF ELISA, PC-3. Type of test: cell-based. As to conditions: 20 μM; for TF (% of DMSO): DMSO = 100%; for TF: mean of triplicate and S.D., DMSO 203 ± 6. The method, then: as §3
Test [6] deals with Vascular Endothelial Growth Factor (VEGF) production by human prostate cancer cell line DU-145. The test can be described thus: VEGF ELISA, DU-145. Type of test: cell-based. As to conditions: for VEGF (% of DMSO): DMSO = 100%.
The next test concerns HUVECS. The test can be described thus: Emory Laboratory Cell Screen, Neutral Red, HUVECS. Format: cell-based, human. As to conditions: Homo sapiens, HUVEC, 72 hours, read-out: Median Growth Inhibitory Concentration (GI50). The method, then: as §1
The next test concerns MDA-MB-231. Put plainly: Emory Laboratory Cell Screen, Neutral Red, MDA-MB-231. Type of test: cell-based, human. As to conditions: Homo sapiens, MDA-MB-231, Breast Cancer, 72 hours, read-out: Median Growth Inhibitory Concentration (GI50). As for the experimental part:
as §1

The test system of test [7] is Vascular Endothelial Growth Factor (VEGF) production by human prostate cancer cell line PC-3. Put plainly: VEGF ELISA, PC-3. Type of test: cell-based. Particulars: for VEGF (% of DMSO): DMSO = 100%.
A further test relates to MDA-MB-435. The test can be described thus: Emory Laboratory Cell Screen, Neutral Red, MDA-MB-435. Format: cell-based, human. As to conditions: Homo sapiens, MDA-MB-435, Breast Cancer, 72 hours, read-out: Median Growth Inhibitory Concentration (GI50). The method, then: as §1
Setting [8] is: Table 5, 5 μM, DMSO control 7054.
[9] abbreviates: Table 5, 20 μM, DMSO control 7054.
[10] abbreviates: 20 μM, mean of triplicate and S.D., DMSO 18760 ± 2633.
Setting [11] is: Table 4, 20 μM, mean of triplicate and S.D.
[12] abbreviates: 20 μM, mean of triplicate and S.D., DMSO 2103 ± 100.

Consider `COc1cc(/C=C/C(=O)CC(=O)/C=C/c2ccc(O)c(OC)c2)ccc1O` [Curcumin], for which the GI50 with RPMI 7951 was found to be 6.3 µM; in test [1], 14.8 µM; in the test on HUVECS, 25 µM; in the test with MDA-MB-231, 11.6 µM; in the test with MDA-MB-435 it was 16.3 µM. The TF in test [2] (5 μM, DMSO = 100) amounted to 126%; in [2] (20 μM, DMSO = 100), 15%; in test [2] (setting [8]) it was 8871 pg/mL; in test [2] (setting [9]), 1026 pg/mL; in [3] it was 7134 ± 301 pg/mL; in [4] (5 μM, DMSO = 100), 100%. Further, the TF in test [4] (5 μM, DMSO control 45753) was found to be 45814 pg/mL; in test [4] (10 μM, DMSO = 100), 98%; in test [4] (10 μM, DMSO control 45753), 44727 pg/mL; in [5], 138 ± 10 pg/mL. For the same molecule, the “TF ELISA” value in test [2] (5 μM, DMSO control 7054) is listed as 7974 pg/ml/well; in test [2] (20 μM, DMSO control 7054) it was 1026 pg/ml/well. For the same molecule, the “TF (% of DMSO)” value in test [3] is “(93%)”; in test [5] it was “(68%)”. In addition, the entries for the “VEGF (% of DMSO)” value in test [6] (20 μM) and in test [7] (20 μM) were “(96%)” and “(99%)”, respectively. Besides, the VEGF in test [6] (setting [10]) came out at 17957 ± 1910 pg/mL; in test [6] (Table 4, 20 μM, DMSO = 100), 96%; in [6] (setting [11]) it was 17957 ± 1910 pg/mL; in test [7] (setting [12]) it was 2088 ± 103 pg/mL; in test [7] (Table 4, 20 μM, DMSO = 100), 99%; in test [7] (setting [11]) it was 2088 ± 103 pg/mL.

On to `O=C1C(=Cc2ccccc2O)CCCC1=Cc1ccccc1O` [EF4, 2,6Bis(2-hydroxybenzylidene)cyclohexanone], for which the GI50 (with RPMI 7951; in test [1]) was 3.6 µM each time. Also, the results for the “TF (% of DMSO)” value in test [3] and in test [5] were “(67%)” and “(16%)”, respectively. In addition, the TF is 5180 ± 420 pg/mL in test [3] and 33 ± 7 pg/mL in [5]. Also, the results for the “VEGF (% of DMSO)” value in test [6] (20 μM) and in test [7] (20 μM) were “(55%)” and “(2%)”, respectively. The VEGF worked out at 10274 ± 4467 pg/mL in test [6] (setting [10]); 55% in [6] (Table 4, 20 μM, DMSO = 100); 10274 ± 4467 pg/mL in test [6] (setting [11]); 48 ± 83 pg/mL in [7] (setting [12]); 2% in [7] (Table 4, 20 μM, DMSO = 100); 48 ± 83 pg/mL in test [7] (setting [11]).

On to `C(=C\c1ccccc1)/S/C=C/c1ccccc1` [EF15], for which the TF in [2] (5 μM, DMSO = 100) was 106%; in test [2] (20 μM, DMSO = 100), 109%; in test [2] (setting [8]), 7506 pg/mL; in [2] (setting [9]), 7663 pg/mL; in test [4] (20 μM, DMSO = 100), 101%; in test [4] (20 μM, DMSO control 45753), 46394 pg/mL. Further, the “TF ELISA” value in test [2] (5 μM, DMSO control 7054) turned out to be 7506 pg/ml/well; in [2] (20 μM, DMSO control 7054) it was 7663 pg/ml/well.
